The values that follow are results of earlier work, collected in patent publication US20060275209A1, “Methods of [11c]-radiolabelling phenothiazine and phenothiazine-like compounds” (priority 2003, published 2006).

The structures appear in SMILES notation.

One data set concerns melanoma cells. The note with it: diffuses through the cellular membranes.
For data set [1] the following is noted: forms a charge transfer complex with the pigment.

Take `CN(C)c1ccc2nc3ccc(N(C)C)cc3[s+]c2c1.[Cl-]` [Methylene blue, 3,7-bis(dimethylamino)phenothiazine-5-ium chloride]: in the data set with melanoma cells, the “accumulation in melanoma cells” value was “accumulates selectively”. Further, the affinity to melanin result in data set [1] is “very high affinity”.
